In patent publication US9963448B2, “Bicyclic inhibitors of PAD4” (Padlock Therapeutics, Inc., priority 2015, dated 2018):
pIC50: −log10 of the molar value. Counter-ions that a name gives are not always drawn. Like-named read-outs stand apart in the source and are kept apart here.

Key:
[1] = biological target: mPAD4 (Mus musculus, UniProt Q9Z183); assay: mPAD4 RFMS PAD4 inhibition assay; assay type: biochemical; details: mPAD4, RFMS readout; for IC50: pIC50=−log(IC50), read-out: mPAD4 RFMS pIC50 (converted); for pIC50: read-out: mPAD4 RFMS IC50;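 for mPAD4 RFMS pIC50: grade E means pIC50 at most 4 and F means pIC50 4.0 to 5.0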
Description: (§1) Compounds of the present invention were assayed as inhibitors of PAD4 using the assay protocol described below.
(§2) Compound stock solutions were stored at RT. […] Final assay conditions were as follows:
(§3) Total incubation time: 65 mins at 37° C.
(§4) Stop solution: 40 μl 5% TCA in ACN
(§5) The compound numbers correspond to the compound numbers in Table 1. […] The term pIC50=−log(IC50). […] “NA” stands for “not assayed.”

[2] = biological target: hPAD4 (Homo sapiens, UniProt Q9UM07); assay: hPAD4 RFMS (RapidFire mass spectrometry) PAD4 inhibition assay; assay type: biochemical; details: hPAD4 enzyme, RFMS readout; for IC50: read-out: hPAD4 RFMS pIC50 (converted); for pIC50: read-out: hPAD4 RFMS IC50;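 for hPAD4 RFMS pIC50: grade E means pIC50 at most 4 and F means pIC50 4.0 to 5.0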
Description: as §1, §2, §3, §4, §5

Chain of mPAD4 (Q9Z183 whole entry): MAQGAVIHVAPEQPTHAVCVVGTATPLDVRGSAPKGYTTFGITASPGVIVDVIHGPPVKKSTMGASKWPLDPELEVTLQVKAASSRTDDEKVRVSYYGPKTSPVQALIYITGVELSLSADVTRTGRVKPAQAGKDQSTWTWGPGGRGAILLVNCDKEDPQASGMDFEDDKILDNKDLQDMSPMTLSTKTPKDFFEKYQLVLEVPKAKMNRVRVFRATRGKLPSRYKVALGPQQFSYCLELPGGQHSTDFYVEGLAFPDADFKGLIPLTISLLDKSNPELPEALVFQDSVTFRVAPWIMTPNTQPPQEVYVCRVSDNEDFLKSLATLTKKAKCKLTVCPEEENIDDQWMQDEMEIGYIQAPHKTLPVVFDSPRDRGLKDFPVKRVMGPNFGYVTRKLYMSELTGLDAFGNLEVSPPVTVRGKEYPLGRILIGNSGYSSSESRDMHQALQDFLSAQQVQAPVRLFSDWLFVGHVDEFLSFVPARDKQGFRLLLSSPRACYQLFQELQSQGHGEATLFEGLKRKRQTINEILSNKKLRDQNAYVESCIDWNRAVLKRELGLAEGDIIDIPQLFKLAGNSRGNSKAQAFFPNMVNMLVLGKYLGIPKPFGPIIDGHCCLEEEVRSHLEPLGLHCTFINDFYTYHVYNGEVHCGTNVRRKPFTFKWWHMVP
Chain of hPAD4 (Q9UM07 whole entry): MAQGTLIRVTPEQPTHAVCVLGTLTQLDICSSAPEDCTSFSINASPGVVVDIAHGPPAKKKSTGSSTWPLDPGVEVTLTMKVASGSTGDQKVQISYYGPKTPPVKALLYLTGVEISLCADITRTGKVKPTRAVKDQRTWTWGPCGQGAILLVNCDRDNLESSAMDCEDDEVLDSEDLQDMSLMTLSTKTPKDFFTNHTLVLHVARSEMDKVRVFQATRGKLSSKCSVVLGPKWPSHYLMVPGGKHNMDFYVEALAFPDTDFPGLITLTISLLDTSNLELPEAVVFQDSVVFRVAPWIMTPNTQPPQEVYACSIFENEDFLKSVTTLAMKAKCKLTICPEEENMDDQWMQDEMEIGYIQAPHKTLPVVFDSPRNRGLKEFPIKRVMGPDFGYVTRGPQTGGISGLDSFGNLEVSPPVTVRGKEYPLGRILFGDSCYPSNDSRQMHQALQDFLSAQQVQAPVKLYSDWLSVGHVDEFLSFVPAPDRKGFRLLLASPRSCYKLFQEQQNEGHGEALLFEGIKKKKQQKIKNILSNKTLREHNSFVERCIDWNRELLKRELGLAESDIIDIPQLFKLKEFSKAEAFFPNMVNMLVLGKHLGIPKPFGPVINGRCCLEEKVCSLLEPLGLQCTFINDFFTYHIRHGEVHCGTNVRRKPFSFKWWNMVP

Row | SMILES | IC50 [1] [nM] | pIC50 [1] | IC50 ([2]; pIC50=−log(IC50)) [nM] | pIC50 [2] | hPAD4 RFMS pIC50 ([2]; pIC50=−log(IC50))
1 | CCn1c(-c2nc3cc(C(=O)N4CCC[C@@H](N)C4)cc(OC)c3n2CCOC)cc2cccnc21 [Compound I-176] | 1000 to 10000 | 5.30 to 6.00 | 1000 to 10000 | 5.30 to 6.00 | 
2 | COc1cc(C(=O)N2CC[C@@H](OC)[C@@H](N)C2)cc2nc(-c3cc4cccnc4n3CC3CC3)n(C)c12 [Compound I-121] | < 1000 | > 6.00 | < 1000 | > 6.00 | 
3 | COc1cc(C(=O)N2CC3CC(N)C2C3)cc2nc(-c3cc4cccnc4n3CC3CC3)n(C)c12 (racemic) [Compound I-99] | > 100000 | < 5.00 | > 100000 | < 5.00 | 
4 | COc1cc(C(=O)N2C[C@H]3CC[C@@H]2[C@@H]3N)cc2nc(-c3cc4cccnc4n3CC3CC3)n(CC(F)F)c12 [Compound I-234] | 1000 to 10000 | 5.30 to 6.00 |  | > 6.00 | H (pIC50 of ≥6)
5 | Cn1c(-c2cc3cccnc3n2CC2CC2)nc2cc(C(=O)N3CC[C@@H]4CCN[C@@H]4C3)ccc21 [Compound I-18] | 10000 to 100000 | < 5.00 | 10000 to 100000 | < 5.00 | 
6 | Cn1c(-c2cc3cccnc3n2CC2CC2)nc2cc(C(=O)N3C[C@@H](N)C[C@H](F)C3)ccc21 [Compound I-66] | 1000 to 10000 | 5.30 to 6.00 | 1000 to 10000 | > 6.00 | 
7 | COc1cc(C(=O)N2CC[C@@]3(CNCCC3(F)F)C2)cc2nc(-c3cc4cccnc4n3CC3CC3)n(C)c12 [Compound I-108] | 10000 to 100000 | < 5.00 | 10000 to 100000 | < 5.00 | 
8 | CCn1c(-c2nc3cc(C(=O)N4CC5CCC4C5N)cc(OC)c3n2C)cc2ccc(OC)nc21 (racemic) [Compound I-136] | < 1000 | > 6.00 | < 1000 | > 6.00 | 
9 | COc1cc(C(=O)N2CCC3OCCNC3C2)cc2nc(-c3cc4cccnc4n3CC3CC3)n(C)c12 (racemic) [Compound I-83] | 1000 to 10000 | 5.30 to 6.00 | 1000 to 10000 | 5.30 to 6.00 | 
10 | CCn1c(-c2nc3cc(C(=O)N4C[C@H]5CC[C@@H]4[C@@H]5N)cc(OC)c3n2C)cc2cccnc21 [Compound I-159] | < 1000 | > 6.00 | < 1000 | > 6.00 | 
11 | CCn1c(-c2nc3cc(C(=O)N4C[C@H]5CC[C@@H]4[C@@H]5N)cc(OC)c3n2CCOC)cc2cccnc21 [Compound I-175] | 1000 to 10000 | 5.30 to 6.00 | < 1000 | > 6.00 | 
12 | COc1cc(C(=O)N2CC3(CNCCO3)C2)cc2nc(-c3cc4cccnc4n3CC3CC3)n(C)c12 [Compound I-32] | 10000 to 100000 | < 5.00 | > 100000 | < 5.00 | 
13 | Cn1c(-c2cc3cccnc3n2CC2CC2)nc2cc(C(=O)N3CCC[C@@H](N)C3)cc(C(N)=O)c21 [Compound I-112, 5-[(3R)-3-aminopiperidine-1-carbonyl]-2-[1-(cyclopropylmethyl)-1H-pyrrolo[2,3-b]pyridin-2-yl]-1-methyl-1H-1,3-benzodiazole-7-carboxamide hydrochloride] | 1000 to 10000 | 5.30 to 6.00 | 1000 to 10000 | 5.00 to 5.30 | 
14 | Cc1cc2c(cc1C(=O)N1CCC[C@@H](N)C1)nc(-c1cc3cccnc3n1CC1CC1)n2C [Compound I-103, (3R)-1-{2-[1-(cyclopropylmethyl)-1H-pyrrolo[2,3-b]pyridin-2-yl]-1,6-dimethyl-1H-1,3-benzodiazole-5-carbonyl}piperidin-3-amine hydrochloride] | 10000 to 100000 | < 5.00 | 10000 to 100000 | < 5.00 | 
15 | CCn1c(-c2nc3cc(C(=O)N4CCC[C@@H](N)C4)cc(OC)c3n2C)cc2ccc(C(F)(F)F)nc21 [Compound I-184] | < 1000 | > 6.00 | < 1000 | > 6.00 | 
16 | COc1cc(C(=O)N2C[C@H]3CC[C@@H]2[C@@H]3N)cc2nc(-c3cc4cccnc4n3CC3CC3)n(CCS(C)(=O)=O)c12 [Compound I-214, (1R,4R,7R)-2-{2-[1-(cyclopropylmethyl)-1H-pyrrolo[2,3-b]pyridin-2-yl]-1-(2-methanesulfonylethyl)-7-methoxy-1H-1,3-benzodiazole-5-carbonyl}-2-azabicyclo[2.2.1]heptan-7-amine] | 1000 to 10000 | 5.30 to 6.00 | < 1000 | > 6.00 | 
17 | COc1cc(C(=O)N2C[C@H]3CC[C@@H]2[C@@H]3N)cc2nc(-c3cc4cccnc4n3CC3CC3)n([C@H]3C[C@@H](F)C3)c12 [Compound I-225] | < 1000 | > 6.00 | < 1000 | > 6.00 | 
18 | COc1cc(C(=O)N2C[C@H]3CC[C@@H]2[C@@H]3N)cc2nc(-c3cc4cccnc4n3CC3CC3)n([C@H]3C[C@H](F)C3)c12 [Compound I-224] | < 1000 | > 6.00 | < 1000 | > 6.00 | 
